Results: the NIST ThermoML archive (doi:10.1007/s10765-010-0766-0)

Assay: wn = mass fraction of the nth substance listed
Conditions: Liquid, Pycnometric method, w2 = 0.4981

FC(F)C(F)(F)F [pentafluoroethane] + FCF
Conditions | mass density [kg/m3]
332.15 K, 7002 kPa | 921.1
333.15 K, 7333 kPa | 920.9
333.15 K, 7355 kPa | 921
333.15 K, 7370 kPa | 921.1
334.15 K, 7700 kPa | 920.8
334.15 K, 7723 kPa | 920.9
334.15 K, 7736 kPa | 921
335.15 K, 8069 kPa | 920.7
335.15 K, 8090 kPa | 920.8
335.15 K, 8104 kPa | 920.9
336.15 K, 8438 kPa | 920.7
336.15 K, 8457 kPa | 920.7
336.15 K, 8472 kPa | 920.8
337.15 K, 8807 kPa | 920.6
337.15 K, 8826 kPa | 920.6
337.15 K, 8840 kPa | 920.8
338.15 K, 9176 kPa | 920.5
338.15 K, 9194 kPa | 920.5
338.15 K, 9209 kPa | 920.7
339.15 K, 9546 kPa | 920.4
339.15 K, 9563 kPa | 920.4
339.15 K, 9579 kPa | 920.6
340.15 K, 9916 kPa | 920.3
340.15 K, 9933 kPa | 920.3
340.15 K, 9949 kPa | 920.5
341.15 K, 10286 kPa | 920.3
341.15 K, 10302 kPa | 920.2
341.15 K, 10320 kPa | 920.4
342.15 K, 10657 kPa | 920.2
342.15 K, 10672 kPa | 920.1
342.15 K, 10691 kPa | 920.4
343.15 K, 11028 kPa | 920.1
343.15 K, 11043 kPa | 920.1
343.15 K, 11061 kPa | 920.3
344.15 K, 11399 kPa | 920.1
344.15 K, 11413 kPa | 920
344.15 K, 11431 kPa | 920.2
345.15 K, 6187 kPa | 774
345.15 K, 11770 kPa | 920
345.15 K, 11784 kPa | 919.9
345.15 K, 11802 kPa | 920.1
346.15 K, 6420 kPa | 774.1
346.15 K, 12143 kPa | 919.9
346.15 K, 12155 kPa | 919.8
346.15 K, 12174 kPa | 920.1
347.15 K, 6655 kPa | 774
347.15 K, 6657 kPa | 773.9
347.15 K, 12515 kPa | 919.8
347.15 K, 12527 kPa | 919.7
347.15 K, 12547 kPa | 920
348.15 K, 6890 kPa | 773.9
348.15 K, 6893 kPa | 773.9
348.15 K, 12887 kPa | 919.8
348.15 K, 12899 kPa | 919.6
348.15 K, 12919 kPa | 919.9
349.15 K, 7127 kPa | 773.9
349.15 K, 7130 kPa | 773.8
349.15 K, 13259 kPa | 919.7
349.15 K, 13271 kPa | 919.6
349.15 K, 13292 kPa | 919.8
350.15 K, 7364 kPa | 773.8
350.15 K, 7368 kPa | 773.8
350.15 K, 13631 kPa | 919.6
350.15 K, 13643 kPa | 919.5
350.15 K, 13664 kPa | 919.7
351.15 K, 7602 kPa | 773.8
351.15 K, 7606 kPa | 773.7
351.15 K, 14004 kPa | 919.5
351.15 K, 14015 kPa | 919.4
351.15 K, 14036 kPa | 919.6
352.15 K, 7841 kPa | 773.7
352.15 K, 7845 kPa | 773.6
352.15 K, 14377 kPa | 919.4
352.15 K, 14387 kPa | 919.3
352.15 K, 14409 kPa | 919.6
353.15 K, 8080 kPa | 773.7
353.15 K, 8084 kPa | 773.6
353.15 K, 14750 kPa | 919.3
353.15 K, 14761 kPa | 919.2
353.15 K, 14783 kPa | 919.5
354.15 K, 8320 kPa | 773.6
354.15 K, 8324 kPa | 773.5
354.15 K, 15123 kPa | 919.2
354.15 K, 15133 kPa | 919.1
354.15 K, 15157 kPa | 919.4
355.15 K, 8560 kPa | 773.6
355.15 K, 8565 kPa | 773.5
355.15 K, 15496 kPa | 919.1
355.15 K, 15507 kPa | 919
355.15 K, 15531 kPa | 919.3
356.15 K, 8801 kPa | 773.5
356.15 K, 8806 kPa | 773.4
356.15 K, 15869 kPa | 919.1
356.15 K, 15880 kPa | 919
356.15 K, 15904 kPa | 919.2
